Earlier results in article PMC7744997 (Clinical Infectious Diseases: An Official Publication of …, 2020).

System: RSV
Conditions: cited from earlier work

Row | SMILES | Outcome on viral load endpoints in clinical studies
1 | Cc1ccc([C@]23Cn4cccc4C(=O)N2CCN3C(=O)c2conc2C)cn1 [BTA-C585] | failure to meet viral load endpoints
2 | Cc1cn2nc([C@@H]3CCCCN3C(=O)c3cc(Cl)ccc3NS(C)(=O)=O)cc2nc1N1CC[C@H](N)C1 [presatovir] | failure to meet viral load endpoints
